For data set [1], the target named is T1, bovine serum albumin (BSA) (Bos taurus, UniProt P02769). As to the kind of experiment: Equilibrium dialysis. In kind it is binding. Conditions: for f (fraction of bound PFAS) / KPW (protein/water partition coefficient): 37°C, standard error in parentheses; for f (fraction of bound PFAS): 10 µM BSA in PBS. (In general: In equilibrium dialysis free small molecules cross a membrane that holds back macromolecules.)

The target of data set [2] is T1, bovine serum albumin (BSA). As to the kind of experiment: Fluorescence quenching of BSA by PFAS. Conditions: for nHill (Hill coefficient, binding cooperativity): Hill model fit, 25°C and 35°C, independent of temperature; for shift in wavelength of maximum fluorescence emission of BSA: maximum shift on PFAS binding (Figure S5). In kind it is binding.
Data set [3] deals with T1, bovine serum albumin (BSA). Conditions: ref Allendorf et al. (2019), cited from earlier work; for Ka (association constant): PFAS-BSA binding.
A further data set relates to serum albumin. Conditions: ref Bischel et al. (2011); cited from earlier work.

Each structure is given as a SMILES string. Like-named read-outs stand apart in the source and are kept apart here.

T1 sequence (P02769 25-607): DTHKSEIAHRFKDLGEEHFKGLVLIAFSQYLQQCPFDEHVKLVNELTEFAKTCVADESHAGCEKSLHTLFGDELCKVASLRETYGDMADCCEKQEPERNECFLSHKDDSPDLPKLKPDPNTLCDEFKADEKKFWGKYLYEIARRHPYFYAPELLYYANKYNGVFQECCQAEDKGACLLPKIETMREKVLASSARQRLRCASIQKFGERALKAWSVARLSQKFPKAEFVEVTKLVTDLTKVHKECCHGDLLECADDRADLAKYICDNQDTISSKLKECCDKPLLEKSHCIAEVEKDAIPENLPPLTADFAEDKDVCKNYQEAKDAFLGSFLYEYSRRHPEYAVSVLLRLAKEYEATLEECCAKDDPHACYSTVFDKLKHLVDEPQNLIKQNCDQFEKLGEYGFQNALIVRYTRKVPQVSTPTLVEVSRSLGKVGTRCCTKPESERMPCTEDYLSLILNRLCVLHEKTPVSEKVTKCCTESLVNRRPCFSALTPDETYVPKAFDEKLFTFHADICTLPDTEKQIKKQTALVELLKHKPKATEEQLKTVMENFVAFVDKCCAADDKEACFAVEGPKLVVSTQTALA

For `O=C(O)C(F)(OC(F)(F)C(F)(F)C(F)(F)F)C(F)(F)F` (stereo not shown) [Gen X, 2,3,3,3-tetrafluoro-2-(heptafluoropropoxy)propanoate], in data set [1], the “f (fraction of bound PFAS)” value is given as 0.265 (0.006). For the same compound, the “KPW (protein/water partition coefficient)” value in data set [1] (PFAS:BSA molar ratio 2:1) is on record as 0.07 (0.002) 10^5. In addition, in data set [2], the “nHill (Hill coefficient, binding cooperativity)” value (shortened to “nHill”) is on record as “noncooperative” and the “shift in wavelength of maximum fluorescence emission of BSA” value (shortened to “shift in wavelength”) is “do not show marked shifts”. Further, the “Ka (association constant)” value in data set [3] is 0.23 (0.05) 10^5 M^−1.

Regarding `O=C(O)C(F)(F)C(F)(F)C(F)(F)C(F)(F)C(F)(F)C(F)(F)C(F)(F)F` [PFOA, perfluorooctanoic acid], in data set [1], the Kd (as a rule, the concentration at which binding is half-saturated) was 2650 nM and the “f (fraction of bound PFAS)” value is 0.755 (0.038). Also, the “KPW (protein/water partition coefficient)” value in data set [1] (PFAS:BSA molar ratio 0.1:1) is listed as 0.66 (0.13) 10^5. Moreover, in data set [2], the “nHill” value was “positive binding cooperativity”. Moreover, in the data set with serum albumin, the “f (fraction of bound PFAS)” value was at least 0.99. Moreover, in data set [3], the “Ka (association constant)” value is given as 11 (1.1) 10^5 M^−1 and the “f (fraction of bound PFAS)” value is 0.44.

For `O=C(O)C(F)(F)C(F)(F)C(F)(F)C(F)(F)C(F)(F)C(F)(F)C(F)(F)C(F)(F)C(F)(F)F` [PFDA, perfluorodecanoic acid], the “f (fraction of bound PFAS)” value in data set [1] was 0.983 (0.004). The “KPW (protein/water partition coefficient)” value in data set [1] (PFAS:BSA molar ratio 0.1:1) is reported as 12.66 (3.23) 10^5. In data set [2], the “nHill” value is under 1 and the “shift in wavelength” value was −10 nm. In data set [3], the “Ka (association constant)” value was 36 (3.1) 10^5 M^−1.

For `O=S(=O)(O)C(F)(F)C(F)(F)C(F)(F)C(F)(F)C(F)(F)C(F)(F)C(F)(F)C(F)(F)F` [PFOS, perfluorooctanesulfonic acid], the “f (fraction of bound PFAS)” value in data set [1] is given as 0.942 (0.004). Besides, the “KPW (protein/water partition coefficient)” value in data set [1] (PFAS:BSA molar ratio 0.1:1) is 3.39 (0.27) 10^5. Further, in data set [2], the “nHill” value is “positive binding cooperativity” and the “shift in wavelength” value is −7 nm. Also, the “Ka (association constant)” value in data set [3] is given as 32 (4.9) 10^5 M^−1.

As for `O=S(=O)(O)C(F)(F)C(F)(F)C(F)(F)C(F)(F)F` [PFBS, perfluorobutanesulfonic acid], the “f (fraction of bound PFAS)” value in data set [1] is 0.249 (0.064). In addition, the “KPW (protein/water partition coefficient)” value in data set [1] (PFAS:BSA molar ratio 2:1) is on record as 0.07 (0.02) 10^5. For the same compound, in data set [2] (1.25 µM BSA, pH 7.4 PBS, values from Table S3), the “fa (fractional accessibility, modified Stern-Volmer equation)” value is ~ 0.3. Also, in data set [2], the “nHill” value is reported as under 1 and the “shift in wavelength” value is given as “do not show marked shifts”. In addition, the “f (fraction of bound PFAS)” value with serum albumin was at least 0.99. In data set [3], the “Ka (association constant)” value is listed as 1.1 (0.28) 10^5 M^−1 and the “f (fraction of bound PFAS)” value is 0.44.

As to `O=C(O)C(F)(F)C(F)(F)C(F)(F)C(F)(F)C(F)(F)C(F)(F)C(F)(F)C(F)(F)F` [PFNA, perfluorononanoic acid], the “f (fraction of bound PFAS)” value in data set [1] is 0.975 (0.005). For the same compound, in data set [1] (PFAS:BSA molar ratio 0.1:1), the “KPW (protein/water partition coefficient)” value was 8.52 (1.62) 10^5. Moreover, in data set [2], the “nHill” value is listed as “noncooperative” and the “shift in wavelength” value is −13 nm. Also, the “Ka (association constant)” value in data set [3] was 14 (2.2) 10^5 M^−1.

As to `O=S(=O)(O)C(F)(F)C(F)(F)C(F)(F)C(F)(F)C(F)(F)C(F)(F)F` [PFHxS, perfluorohexanesulfonic acid], in data set [1], the affinity, expressed as Kd, was 1540 nM and the “f (fraction of bound PFAS)” value is recorded as 0.842 (0.008). Also, the “KPW (protein/water partition coefficient)” value in data set [1] (PFAS:BSA molar ratio 0.1:1) is 1.11 (0.06) 10^5. Also, in data set [2], the “nHill” value is reported as “positive binding cooperativity” and the “shift in wavelength” value is given as −10 nm. The “f (fraction of bound PFAS)” value in the data set with serum albumin is at least 0.99. Moreover, in data set [3], the “Ka (association constant)” value was 44 (3.5) 10^5 M^−1 and the “f (fraction of bound PFAS)” value was 0.62.

The values above are taken from paper PMC8612954 (Chemosphere, 2021).
